Read-outs that look alike come from different tables or passages of the source.
Experiments:
22Rv1 [1] = assay: Cytotoxicity (CC50) on 22Rv1 cells; type: cell-based; details: Homo sapiens, 22Rv1, read-out: CC50, 22Rv1
Procedure: The in vitro efficacy study of the PSMA-Abi conjugate included an assessment of its cytotoxic potential towards prostate cancer cell cultures (Table 1). […] Thus, we observed an increase in the efficacy of the conjugate towards the PSMA-expressing line. Additionally, an evaluation in a non-tumor model was performed. The toxicity of both compounds was evaluated on human adult dermal fibroblasts (HDFa); both of the agents in the tested concentrations (0.4–100 µM) were non-toxic for human fibroblasts.
22Rv1 and PC-3 cells were received from the MISIS collection of cell lines (less than ten passages from ATCC stock). All cells were cultured in humidified 37 °C incubators with 5% CO2. All cell lines were tested for the absence of mycoplasma. 22Rv1, androgen-responsive PSMA-positive human prostate carcinoma cells, were cultured in RPMI 1640 media (Gibco) with 10% FBS (Gibco), 1× GlutaMax (Gibco), and 1× Penicillin-Streptomycin (10,000 U/mL, Gibco). PC-3, PSMA-negative human prostate cancer cells, were cultured in DMEM/F12 media (Gibco) with 10% FBS (Gibco), 1× GlutaMax (Gibco), and 1× Penicillin-Streptomycin (10,000 U/mL, Gibco).

[2] = Cytotoxicity on human adult dermal fibroblasts, MTT-test; type: cell-based; details: human, human adult dermal fibroblasts (HDFa); HDFa, 72 h, MTT
Procedure: Human adult dermal fibroblasts (HDFa). (ATCC) were propagated in DMEM medium (Paneco) supplemented with 10% fetal calf serum (Gibco) and 1% pemicillin/streptomycin in a 5% CO2 atmosphere at 37 °C. Cytotoxicity of PSMA-Abi and AbiAc in fibroblasts were studied using MTT-test. The cells in the exponential growth phase were trypsinized, counted, and seeded at a density of 5000 cells/well in 96-well plate. Cells were incubated with both tested agents at the designated concentrations (0.4–100 μM) for 72 h; then, each well was treated with 20 μL MTT solution in PBS (5 mg/mL) and cells were incubated at least for 3 h, and formazan was dissolved in DMSO. The absorbance was measured at […] and 620 nm using Thermofischer Scientific Multiscan FC. The values for each point were calculated from 6 wells.

22Rv1 cells = assay: Cell cycle analysis; type: cell-based, human
Procedure: Cell cycle was analyzed in 22Rv1 cells fixed in 70% ethanol with Muse® cell cycle kit. The fixation lasted overnight at −20 °C. Then, cells were collected by centrifugation at 4000 rpm for 10 min and washed with PBS. The cells were resuspended with Muse® Cell Cycle reagent and incubated for 30 min at room temperature in the dark; then, they were counted.

22Rv1 [3] = assay: Single cell ROS measurement with Pt-nanoelectrodes, 22Rv1; type: cell-based, human; details: 22Rv1, 1 h incubation, IC50 concentration
Procedure: (§1) Commercially available, disk-shaped carbon nanoelectrodes isolated in quartz (ICAPPIC Limited, London, UK) with diameters of 60–100 nm were used to prepare Pt nanoelectrodes for the amperometric detection of intracellular ROS level. Preparation of Pt-nanoelectrodes has been described in detail previously.
(§2) Briefly, a disk-shaped carbon nanoelectrode was etched in a 0.1 M NaOH, 10 mM KCl solution for 20–40 cycles of 10 seconds (from 0 to +2200 mV) to create nanocavities. Electrochemical deposition of platinum in nanocavities was achieved by cycling from 0 to −800 mV with a scan rate of 200 mV s^−1 for 8 to 10 cycles in 2 mM H2PtCl6 solution in 0.1 M hydrochloric acid. […]
(§3) The setup for amperometric measurements included a PC that was connected to a system consisting of an ADC–DAC converter Axon Digidata 1550B (Axon Instruments, Burlingame, CA, USA) and patch-clamp amplifier MultiClamp 700B (Axon Instruments, USA). […] The potential difference between the Pt-nanoelectrode and the reference electrode was recorded with the pClamp 11 software suite (Molecular Devices, Silicon Valley, CA, USA) and processed with Origin 2018 software.
(§4) PC-3 (2.0 × 10^5)/22Rv1 (3.5 × 10^5) cells were seeded in 35 mm Petri dishes, incubated under the conditions described above, and then treated for 24 h. […] Untreated cells were used as a control, which was evaluated at the beginning and at the end of the experiment. […]

PC-3 [4] = assay: Single cell ROS measurement with Pt-nanoelectrodes, PC-3; type: cell-based, human; details: PC-3, 1 h incubation, IC50 concentration
Procedure: as §1, §2, §3, §4

[5] = system: 22Rv1 prostate cancer subcutaneous xenograft; assay: 22Rv1 human tumor xenograft mouse model; type: in vivo, Balb/c nude mice; details: 22Rv1 xenografts
Procedure: Male, 6–8 week old Balb/c nude mice with body weight range of 20–22 g were purchased from N.N.Blokhin Cancer Research Center. Animals were kept in plastic cages equipped with lids with feeding recesses, air filters, and feed dividers at 2–3 mice per cage.
Mice were injected subcutaneously in the right and left flanks with 1 × 10^7 22Rv1 cells in RPMI-1640 medium 0.2 mL supplemented with 0.2 mL Corning Matrigel® matrix (Corning, NY, USA) in a total volume of 400 μL. When the average size of the tumors reached ~100 mm^3, mice were randomly divided into three groups, with five mice per group, including a vehicle group (1% starch paste) and two treatment groups: PSMA-Abi 500 mg/kg/day and AbiAc 200 mg/kg/day for 14 days. The drugs were administered orally, and all compounds were formulated with 1% starch paste. Following the treatment, the primary tumor size was measured twice weekly with a micro-caliper, and the tumor volume was calculated using the formula: Volume = π/6 × length × width × height. Treatment outcome was based on percentage of tumor growth inhibition (%TGI), defined as the percent difference between the median tumor volumes (MTVs) of mice in the treated and control groups. Percent TGI was calculated using the following formula: %TGI = [1 − (MTV treatment group/MTV control)] 100%. All data are presented as means ± SD. Statistical analyses of in vivo research were performed using SPSS Statistics V. 22.0, comparing continuous variables by non-parametrical Mann–Whitney U. * p ≤ 0.05 was considered as significant in comparison with the control.

PC-3 [6] = system: PC-3; parameters: method as in PMID 29310026; details: PC-3 cell line; cited from earlier work
[7] = mouse, in vivo; cited from earlier work
PSMA = system: PSMA; parameters: method as in PMID 33822606; details: PSMA ligand; cited from earlier work
PSA level = system: PSA level; parameters: method as in PMID 22995653; details: cited from earlier work
[8] = oral x14, PSMA-Abi 500, AbiAc 200 mg/kg/day

CC(=O)O[C@H]1CC[C@@]2(C)C(=CC[C@@H]3[C@@H]2CC[C@]2(C)C(c4cccnc4)=CC[C@@H]32)C1 [AbiAc, abiraterone acetate, reference compound]
CC50 (22Rv1 [1]): 22.7 ± 3.3 µM
CC50 at 72 h [2]: > 100 µM
S cells (22Rv1 cells; 22Rv1): unaffected
level of G0/G1 cells (22Rv1 cells; 22Rv1, with increasing concentration): increased
percentage of 22Rv1 cells in the G2/M phase (22Rv1 cells; with increasing concentration, compared to control cells): decreased
ROS (hydrogen peroxide) level in single cells (22Rv1 [3]): significantly increased compared to the control
ROS (hydrogen peroxide) level in single cells (PC-3 [4]): significantly increased compared to the control
TGImax (tumor growth inhibition) ([5]; oral x14, PSMA-Abi 500 mg/kg/day, AbiAc 200 mg/kg/day, after the end of treatment): 78%
TGI, day 15 after start of the treatment [5, 8]: 78%
TGI, day 18 after start of the treatment [5, 8]: 72%
TGI, day 22 after start of the treatment [5, 8]: 69%
Tumor volume (M+SE), day 15 [5, 8]: 547±64 mm3
Tumor volume (M+SE), day 18 [5, 8]: 811±72 mm3
Tumor volume (M+SE), day 22 [5, 8]: 997±110 mm3
Tumor volume (M+SE), day 0 ([5]; start of treatment): 91±20 mm3
CC50 (PC-3 [6]): 5.9 ± 0.8 µM
LD50 [7]: 800 mg/kg

[N-]=[N+]=NCCCNC(=O)[C@H](Cc1ccc(O)cc1)NC(=O)[C@H](Cc1ccccc1)NC(=O)CCC(=O)NCCCCCC(=O)N(CCCC[C@H](NC(=O)N[C@@H](CCC(=O)O)C(=O)O)C(=O)O)Cc1cccc(Cl)c1 [PSMA ligand 1]
IC50 (PSMA): 9 ± 3 nM

C[C@]12CC[C@H](O)CC1=CC[C@@H]1[C@@H]2CC[C@]2(C)C(c3cccnc3)=CC[C@@H]12 [abiraterone]
patients with PSA level decreased by more than 90% (PSA level; chemotherapy-naïve patients): 40%
patients with PSA level decreased by more than 50% (PSA level; patients after ketoconazole therapy): 33%
patients with PSA level decreased by more than 50% (PSA level; patients who had not previously received chemotherapy): 85%

— paper PMC9783881, “Synthesis and Preclinical Evaluation of Small-Molecule Prostate-Specific Membrane Antigen-Targeted Abiraterone Conjugate” (Molecules, 2022)
